Source: patent US20240051939A1, “BENZOPYRAZOLE INHIBITORS OF SARM1” (Disarm Therapeutics, Inc., priority 2020, published 2024)

Molecular target: SARM1 (Homo sapiens (Human), UniProt Q6SZW1)
Assay: ARM-SAM-TIR SARM1 IC50 assay (NADase activity, NAD+ cleavage)
Format: biochemical
Settings: ARM-SAM-TIR lysate 5 μg/mL, 2 h pre-incubation, 5 μM NAD+, RapidFire MS readout
Description: This Example describes an assay of ARM-SAM-TIR NADase activity and use of this assay to measure the efficacy of compounds of Formula I to block SARM1 mediated NAD+ cleavage. This assay was optimized in such a way as to characterize the efficacy of the compounds in Formula I to inhibit SARM1 activity and to calculate an IC50 value for each compound. This assay makes use of full length SARM1, which encompasses the ARM, SAM and TIR domains.
NRK1-HEK293T cells were seeded onto 150 cm^2 plates at 20×10^6 cells per plate. The next day, the cells were transfected with 15 μg ARM-SAM-TIR expression plasmid, SEQ ID NO: 1.
The cultures were supplemented with 1 mM NR at time of transfection to minimize toxicity from ARM-SAM-TIR overexpression. […] Protein concentration was determined by the Bicinchoninic (BCA) method and used to normalize lysate concentrations.
The enzymatic assay was performed in a 384-well polypropylene plate in Dulbecco's PBS buffer in a final assay volume of 20 μL. […] The NAD+ and ADPR concentrations were analyzed by a RapidFire High Throughput Mass Spectrometry System (Agilent Technologies, Santa Clara, CA) using an API4000 triple quadrupole mass spectrometer (AB Sciex Framingham, MA).

Sequence of SARM1 (Q6SZW1 other isoform, or with tags, fused parts or gaps): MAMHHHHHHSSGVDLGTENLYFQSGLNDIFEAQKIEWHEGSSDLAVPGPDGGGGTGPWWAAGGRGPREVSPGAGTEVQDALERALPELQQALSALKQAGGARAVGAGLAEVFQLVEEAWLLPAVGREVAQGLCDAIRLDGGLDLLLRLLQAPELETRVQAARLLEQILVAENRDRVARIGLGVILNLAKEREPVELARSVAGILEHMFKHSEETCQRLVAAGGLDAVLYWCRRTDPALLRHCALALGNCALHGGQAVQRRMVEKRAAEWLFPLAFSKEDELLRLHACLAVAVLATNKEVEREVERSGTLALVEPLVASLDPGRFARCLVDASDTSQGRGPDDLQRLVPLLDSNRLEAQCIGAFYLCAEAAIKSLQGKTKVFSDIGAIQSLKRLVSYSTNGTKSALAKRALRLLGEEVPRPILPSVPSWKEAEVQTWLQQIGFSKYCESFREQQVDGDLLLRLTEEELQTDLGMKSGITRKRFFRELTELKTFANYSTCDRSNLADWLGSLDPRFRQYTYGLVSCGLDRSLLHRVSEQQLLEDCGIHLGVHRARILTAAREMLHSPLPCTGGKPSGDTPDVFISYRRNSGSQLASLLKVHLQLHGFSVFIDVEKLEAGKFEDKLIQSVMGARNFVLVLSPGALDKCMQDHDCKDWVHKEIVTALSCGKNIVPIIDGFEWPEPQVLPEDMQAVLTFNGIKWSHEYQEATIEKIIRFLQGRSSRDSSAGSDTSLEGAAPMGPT

IC50 [nM] | SMILES
101 to 500 | Clc1ccc(CCc2n[nH]c3cc(-c4ccncc4)ccc23)cn1 [Compound I-2]
101 to 500 | Clc1ccc(CCc2n[nH]c3cc(-c4ccncc4)ccc23)cc1 [Compound I-1]
